This note sets out measurements from paper PMC8659164, “Effect of S–Se Bioisosteric Exchange on Affinity and Intrinsic Efficacy of Novel N-acylhydrazone Derivatives at the Adenosine A2A Receptor” (Molecules, 2021).

The target in this test is T1, adenosine A2A receptor (A2AR) (Rattus norvegicus, UniProt P30543).
T1 construct: gene Adora2a; native full-length receptor in striatum membrane preparation of adult male Wistar rats
T1 sequence (P30543 whole entry): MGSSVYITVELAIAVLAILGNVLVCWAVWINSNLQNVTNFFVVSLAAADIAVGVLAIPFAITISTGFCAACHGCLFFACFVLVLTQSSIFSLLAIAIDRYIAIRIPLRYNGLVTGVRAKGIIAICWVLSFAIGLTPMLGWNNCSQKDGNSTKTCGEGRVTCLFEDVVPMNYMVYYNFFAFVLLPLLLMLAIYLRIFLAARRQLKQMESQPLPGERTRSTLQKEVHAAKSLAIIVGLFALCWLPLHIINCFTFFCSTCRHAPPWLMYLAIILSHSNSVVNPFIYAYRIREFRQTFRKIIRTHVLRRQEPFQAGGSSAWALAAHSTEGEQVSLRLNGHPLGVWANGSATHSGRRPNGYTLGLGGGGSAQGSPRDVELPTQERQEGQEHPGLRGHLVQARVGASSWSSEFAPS
The test is described as follows: [3H]-ZM241385 competition, rat striatum membranes. Type of test: binding. Particulars: 50 mM MgCl2 (medium I), 0.5 nM [3H]-ZM241385, pH 7.4, 25 °C, 60 min; parentheses = 95% CI. An excerpt:
[3H]-ZM241385 competition, rat striatum membranes on adenosine A2A receptor (A2AR)
`O=C(N/N=C/c1cccs1)c1ccc2c(c1)OCO2` [compound 1, LASSBio-294]: the IC50 worked out at 38.9 µM.

For the compound `COc1cccc(C=NNC(=O)c2cccs2)c1` [compound 13, N’-(3-Methoxybenzylidene)thiophene-2-carbo-hydrazide], the IC50 came to 27.1 µM.

As to `COc1cccc(C(=O)N(C)/N=C/c2cccs2)c1` [compound 7, 3-Methoxy-N-methyl-N’-(thiophen-2-yl-methylene)benzohydrazide], the IC50 came to 22.3 µM.

Regarding `COc1cccc(C=NNC(=O)c2ccc[se]2)c1` [compound 14, N’-(3-Methoxybenzylidene)selenophene-2-ca-rbohydrazide], the IC50 was 16.6 µM.

As to `COc1cccc(C(=O)N/N=C/c2ccc[se]2)c1` [compound 5, 3-Methoxy-N’-(selenophen-2-yl-methylene)benzohydrazide], the IC50 turned out to be 10.4 µM.

Take `CN(/N=C/c1ccc[se]1)C(=O)c1ccc2c(c1)OCO2` [compound 6, N-Methyl-N’-(selenophen-2-yl-methylene) benzo[d][1,3]dioxole-5-carbohydrazide]: the IC50 stood at 52.9 µM.

Consider `COc1cccc(C(=O)N(C)/N=C/c2ccc[se]2)c1` [compound 8, LASSBio-2199], for which the IC50 turned out to be 15.4 µM.

As for `CN(/N=C/c1cccs1)C(=O)c1ccc2c(c1)OCO2` [compound 2, LASSBio-785], the IC50 turned out to be 47.9 µM.

Take `O=C(N/N=C/c1ccc[se]1)c1ccc2c(c1)OCO2` [compound 3, N’-(Selenophen-2-yl-methylene)benzo[d][1,3] dioxole-5-carbohydrazide]: the IC50 stood at 20.9 µM.

Take `COc1cccc(C(=O)N/N=C/c2cccs2)c1` [compound 4, 3-Methoxy-N’-(thiophen-2-yl-methylene)benzohydrazide]: the IC50 turned out to be 10.8 µM.
